Data: patent publication US12653191B2, “Active compound combinations” (Bayer Aktiengesellschaft, priority 2020, dated 2026)
“And” between values parts separate entries of the source, which are not always exact repeats. Equal values may be shown once. Read-outs that look alike come from different tables or passages of the source.

Assays:
Alternaria alternate = assay: in vitro-Test with fungal microorganisms, Method A (tables A1-A12); assay type: cell-based, Alternaria alternata; conditions: applied alone
Procedure: (§1) Example: In Vitro-Test with Fungal Microorganisms
(§2) Wells of 96-well microtiter plates are filled with 10 μl of a preparation of test compound or compound combination in methanol+emulsifier alkylaryl-polyglycol-ether. Thereafter, the solvent is evaporated in a hood. At the next step, 100 μl of liquid potato dextrose medium is given into each well, that has been amended with an appropriate concentration of spores or mycelium suspension of the test fungus.
(§3) With the aid of a photometer, the extinction in all wells is measured at the wavelength of 620 nm.
(§4) The microtiter plates are incubated at 20° C. and 85% relative humidity. The inhibition of growth is determined again photometrically 3-5 days after the application. Efficacy is calculated in relation to the untreated control, 0% efficacy means fungal growth as high as in untreated control while 100% efficacy means no fungal growth is measured.
(§5) The data in tables A1 to A12, B1 to B14, C1 to C10, D1 to D8, E1 to E8, F1 to F11, G1 to G4, H1 to H4 and I1 to I5 were collected according to Method A. The data in tables A13 to A22, B15 to B18, C11 to C20, E9 to E16, F12 to F15, G5 to G15, H5 to H8, I6 to I11 and J1 to J11 were collected according to Method B.

Botrytis cinerea [1] = assay: in vitro-Test with fungal microorganisms, Method A (tables B1-B14); assay type: cell-based
Procedure: as §1, §2, §3, §4, §5

[2] = test system: Colletotrichum lindemuthianum; assay: in vitro-Test with fungal microorganisms, Method A (tables D1-D8); assay type: cell-based
Procedure: as §1, §2, §3, §4, §5

Cordana musae [3] = assay: in vitro-Test with fungal microorganisms, Method A (tables E1-E8); assay type: cell-based; conditions: for Efficacy %: single substance
Procedure: as §1, §2, §3, §4, §5

Diaporthe citri = assay: in vitro-Test with fungal microorganisms, Method A (tables F1-F11); assay type: cell-based; conditions: applied alone
Procedure: as §1, §2, §3, §4, §5

Fusarium culmorum [4] = assay: in vitro-Test with fungal microorganisms, Method A (tables G1-G4); assay type: cell-based; conditions: Fusarium culmorum, alone, read-out: Efficacy
Procedure: as §1, §2, §3, §4, §5

Alternaria alternata = assay: in vitro-Test with fungal microorganisms, Method B (tables A13-A22); assay type: cell-based; conditions: single compound
Procedure: as §1
as §2, with “30” for “10”, “200” for “100”, “growth” for “potato dextrose”, “given,” for “given into each well,”
(§6) With the aid of a photometer, the extinction in all wells is measured at the wavelength of 600 nm.
(§7) The microtiter plates are incubated for 3 to 7 days at 20° C. and 85% relative humidity. After the incubation inhibition of growth is determined photometrically. Efficacy is calculated in relation to the untreated control, 0% efficacy means fungal growth as high as in untreated control while 100% efficacy means no fungal growth is measured.
as §5

Botrytis cinerea [5] = assay: in vitro-Test with fungal microorganisms, Method B (tables B15-B18); assay type: cell-based; conditions: alone
Procedure: as §1
as §2, with “30” for “10”, “200” for “100”, “growth” for “potato dextrose”, “given,” for “given into each well,”
as §6, §7, §5

Cercospora beticola [6] = assay: in vitro-Test with fungal microorganisms, Method A (tables C1-C10); assay type: cell-based
Procedure: as §1, §2, §3, §4, §5

Cercospora beticola [7] = assay: in vitro-Test with fungal microorganisms, Method B (tables C11-C20); assay type: cell-based
Procedure: as §1
as §2, with “30” for “10”, “200” for “100”, “growth” for “potato dextrose”, “given,” for “given into each well,”
as §6, §7, §5

Cordana musae [8] = assay: in vitro-Test with fungal microorganisms, Method B (tables E9-E16); assay type: cell-based; conditions: for Efficacy: single active; for Efficacy %: single substance
Procedure: as §1
as §2, with “30” for “10”, “200” for “100”, “growth” for “potato dextrose”, “given,” for “given into each well,”
as §6, §7, §5

Fusarium culmorum [9] = assay: in vitro-Test with fungal microorganisms, Method B (tables G5-G15); assay type: cell-based
Procedure: as §1
as §2, with “30” for “10”, “200” for “100”, “growth” for “potato dextrose”, “given,” for “given into each well,”
as §6, §7, §5

[10] = test system: Ustilago segetum var. avenae; assay: in vitro-Test with fungal microorganisms, Method A (tables I1-I5); assay type: cell-based; conditions: alone
Procedure: as §1, §2, §3, §4, §5

[11] = test system: Ustilago segetum var. avenae; assay: in vitro-Test with fungal microorganisms, Method B (tables I6-I11); assay type: cell-based; conditions: 0.2 ppm
Procedure: as §1
as §2, with “30” for “10”, “200” for “100”, “growth” for “potato dextrose”, “given,” for “given into each well,”
as §6, §7, §5

Colletotrichum coccodes = assay: in vitro-Test with fungal microorganisms, Method B (tables J1-J11); assay type: cell-based
Procedure: as §1
as §2, with “30” for “10”, “200” for “100”, “growth” for “potato dextrose”, “given,” for “given into each well,”
as §6, §7, §5

[12] = Botrytis cinerea, read-out: Efficacy
[13] = Botrytis cinerea, alone, read-out: Efficacy %

In the case of `CCN(C)C=Nc1cc(C)c(Oc2ccccc2F)cc1Cl` [(15.064), N′-[2-chloro-4-(2-fluorophenoxy)-5-methylphenyl]-N-ethyl-N-methylimidoformamide], the inhibition of growth at 0.08 ppm (Alternaria alternate; Alternaria, 0.08 ppm, read-out: Efficacy %) is reported as 2%, the inhibition of growth at 0.4 ppm (Alternaria alternate; Alternaria, 0.4 ppm, read-out: Efficacy %) is reported as 5% and the inhibition of growth at 2 ppm (Alternaria alternate; Alternaria, 2.0 ppm, read-out: Efficacy %) is reported as 12%. It also gave an inhibition of growth at 10 ppm (Alternaria alternate; Alternaria, 10.0 ppm, read-out: Efficacy %) of 50%, an inhibition of growth at 0.08 ppm (Botrytis cinerea [1]; [12]) of 5% and an inhibition of growth at 0.4 ppm (Botrytis cinerea [1]; Botrytis cinerea, 0.4 ppm, read-out: Efficacy) of 21%. It also gave an inhibition of growth at 2 ppm (Botrytis cinerea [1]; [12]) of 2%, an inhibition of growth at 0.08 ppm (Botrytis cinerea [1]; [13]) of 9% and an inhibition of growth at 2 ppm (Botrytis cinerea [1]; [13]) of 5%. It also gave an inhibition of growth at 0.08 ppm ([2]; Colletotrichum lindemuthianum, mixing partner alone, 0.08 ppm, read-out: Efficacy %) of 16%, an inhibition of growth at 0.4 ppm ([2]; Colletotrichum lindemuthianum, mixing partner alone, 0.4 ppm, read-out: Efficacy %) of 0% and an inhibition of growth at 2 ppm ([2]; Colletotrichum lindemuthianum, mixing partner alone, 2.0 ppm, read-out: Efficacy %) of 0%. For the same molecule, the inhibition of growth at 0.4 ppm (Cordana musae [3]; Neocordana musae, mixing partner alone, 0.4 ppm, read-out: Efficacy %) was 0%, the inhibition of growth at 2 ppm (Cordana musae [3]; Neocordana musae, mixing partner alone, 2.0 ppm, read-out: Efficacy %) was 0% and the inhibition of growth at 10 ppm (Cordana musae [3]; Neocordana musae, mixing partner alone, 10.0 ppm, read-out: Efficacy %) was 27%. It also gave an inhibition of growth at 2 ppm (Diaporthe citri; Diaporthe citri, 2.0 ppm, read-out: Efficacy) of 0%, an inhibition of growth at 10 ppm (Diaporthe citri; Diaporthe citri, 10.0 ppm, read-out: Efficacy) of 0% and an inhibition of growth at 2 ppm (Fusarium culmorum [4]; 2.0 ppm) of 0%. The inhibition of growth at 10 ppm (Fusarium culmorum [4]; 10.0 ppm) was 1%.
Work on `Cn1cc(C(=O)Nc2ccc(F)cc2-c2ccc(Cl)c(Cl)c2)c(C(F)F)n1` [(2.002) bixafen, bixafen] yielded an Efficacy % (Alternaria alternate; 0.008 ppm) of 29%, an Efficacy % (Alternaria alternate; 0.04 ppm) of 23% and an Efficacy % (Alternaria alternate; 0.2 ppm) of 66%. For the same molecule, the Efficacy % (Alternaria alternate; 1.0 ppm) was 46%, the Efficacy (Alternaria alternata; 0.008 ppm) was 13% and 23% and the Efficacy (Alternaria alternata; 0.04 ppm) was 67%. The Efficacy (Alternaria alternata; 1 ppm) was 59% and 85%, the Efficacy (Botrytis cinerea [1]; 0.04 ppm) was 22% and the Efficacy (Botrytis cinerea [1]; 0.2 ppm) was 63%. The Efficacy (Botrytis cinerea [1]; 1.0 ppm) was 67%, the Efficacy % (Botrytis cinerea [5]; 0.008 ppm) was 6% and the Efficacy % (Botrytis cinerea [5]; 0.2 ppm) was 0%. The Efficacy % (Botrytis cinerea [5]; 1 ppm) was 66%, the Efficacy % (Cercospora beticola [6]; 0.2 ppm) was 0% and the Efficacy % (Cercospora beticola [6]; 1.0 ppm) was 0%. It also gave an Efficacy % (Cercospora beticola [7]; 1 ppm) of 0%, an Efficacy % (Cercospora beticola [7]; single compound, 0.2 ppm) of 14% and an Efficacy % (Cercospora beticola [7]; single compound, 1 ppm) of 20%. For the same molecule, the Efficacy % ([2]; single active at 0.008 ppm) was 6% and 0%, the Efficacy % ([2]; single active at 0.04 ppm) was 0% and the Efficacy % ([2]; single active at 0.2 ppm) was 0%. For the same molecule, the Efficacy % (Cordana musae [3]; 0.008 ppm) was 0% and 8%, the Efficacy % (Cordana musae [3]; 0.04 ppm) was 2% and 0% and the Efficacy % (Cordana musae [3]; 0.2 ppm) was 0%. The Efficacy % (Cordana musae [3]; 1.0 ppm) was 0%, the Efficacy (Cordana musae [8]; 0.008 ppm) was 17% and the Efficacy (Cordana musae [8]; 0.04 ppm) was 0%. It also gave an Efficacy (Cordana musae [8]; 0.2 ppm) of 0%, an Efficacy (Cordana musae [8]; 1 ppm) of 2% and an Efficacy % (Cordana musae [8]; 0.008 ppm) of 0%. The Efficacy % (Cordana musae [8]; 0.04 ppm) was 0%, the Efficacy % (Cordana musae [8]; 0.2 ppm) was 0% and the Efficacy (Diaporthe citri; 0.2 ppm) was 0% and 5%. The Efficacy (Diaporthe citri; 1.0 ppm) was 0% and 5%, the Efficacy (Fusarium culmorum [9]; 0.008 ppm alone) was 2% and the Efficacy (Fusarium culmorum [9]; 0.04 ppm alone) was 17%. It also gave an Efficacy (Fusarium culmorum [9]; single active compound, 0.008 ppm) of 2%, an Efficacy (Fusarium culmorum [9]; single active compound, 0.04 ppm) of 7% and an Efficacy (Fusarium culmorum [9]; single active compound, 0.2 ppm) of 11%. It also gave an Efficacy (Fusarium culmorum [9]; single active compound, 1 ppm) of 18%, an Efficacy % ([10]; 0.008 ppm) of 0% and an Efficacy % ([10]; 0.04 ppm) of 0%. It also gave an Efficacy % ([10]; 0.2 ppm) of 100%, an Efficacy % ([10]; 1.0 ppm) of 100% and an Efficacy % [11] of 44%. It also gave an Efficacy % (Colletotrichum coccodes; 0.008 ppm) of 33%, an Efficacy % (Colletotrichum coccodes; 0.04 ppm) of 45% and an Efficacy % (Colletotrichum coccodes; 0.2 ppm) of 0%. The Efficacy % (Colletotrichum coccodes; 1 ppm) was 0% and the Efficacy % (Colletotrichum coccodes; single active compound at 0.008 ppm) was 30%.
